Data taken from patent publication US9981916B2 (Genentech, Inc., priority 2013, dated 2018).

target: T1, RORc ligand binding domain (Homo sapiens, UniProt P51449); test: In vitro RORc ligand binding assay (25-[3H]hydroxycholesterol displacement, filter binding); details: 6 nM 25-[3H]hydroxycholesterol, 0.6 ug/mL RORc receptor, 3 h at 25° C.
T1 construct: host or cells: E. coli
T1 sequence (P51449 269-508 limits assumed): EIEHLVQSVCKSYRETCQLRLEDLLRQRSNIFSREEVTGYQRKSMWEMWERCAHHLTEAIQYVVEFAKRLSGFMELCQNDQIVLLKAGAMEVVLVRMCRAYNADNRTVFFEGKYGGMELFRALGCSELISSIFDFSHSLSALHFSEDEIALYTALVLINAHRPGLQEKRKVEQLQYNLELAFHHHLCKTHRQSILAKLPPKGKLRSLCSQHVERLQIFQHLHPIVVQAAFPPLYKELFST
How it was run: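 Filter-binding displacement of 6 nM 25-[3H]hydroxycholesterol from RORc receptor (0.6 ug/mL) in 50 mM HEPES pH 7.4, 150 mM NaCl, 5 mM MgCl2, 1 mM DTT, 0.01% BSA, 5% DMSO; 3 h at 25° C. NSB defined with 1 uM 25-hydroxycholesterol; scintillation counting gave Kiapp, IC50 or % inhibition (screening at 1 and 10 uM).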

SMILES	IC50
CC1(C)[C@@H]2CC[C@@]1(C(=O)N1CCCC1C(F)(F)F)c1nnc(-c3c(F)cccc3F)cc12 (stereo partly drawn) [Example 224, ((5S,8S)-3-(2,6-difluorophenyl)-9,9-dimethyl-5,6,7,8-tetrahydro-5,8-methanocinnolin-8-yl)(2-(trifluoromethyl)pyrrolidin-1-yl)methanone]	327 nM
CC(NC(=O)[C@@]12CC[C@@H](c3cc(-c4ccccc4F)nnc31)C2(C)C)c1ccccc1 (stereo partly drawn) [Example 183, (5R,8R)-3-(2-fluorophenyl)-9,9-dimethyl-N-(1-phenylethyl)-5,6,7,8-tetrahydro-5,8-methanocinnoline-8-carboxamide]	1000 nM
Cc1nnc(OC[C@@]23CC[C@@H](c4cc(-c5c(F)cccc5F)nnc42)C3(C)C)o1 [Example 143, 2-(((5R,8R)-3-(2,6-difluorophenyl)-9,9-dimethyl-5,6,7,8-tetrahydro-5,8-methanocinnolin-8-yl)methoxy)-5-methyl-1,3,4-oxadiazole]	286 nM
CC(=O)NCC(=O)N(CCO)C[C@@]12CC[C@@H](c3cc(-c4c(F)cccc4F)nnc31)C2(C)C [Example 298, 2-acetamido-N-(((5R,8S)-3-(2,6-difluorophenyl)-9,9-dimethyl-5,6,7,8-tetrahydro-5,8-methanocinnolin-8-yl)methyl)-N-(2-hydroxyethyl)acetamide]	705 nM
CC1(C)[C@@H]2CC[C@@]1(C(=O)N1CCC(F)(F)C1)c1nnc(-c3c(F)cccc3F)cc12 [Example 207, ((5S,8S)-3-(2,6-difluorophenyl)-9,9-dimethyl-5,6,7,8-tetrahydro-5,8-methanocinnolin-8-yl)(3,3-difluoropyrrolidin-1-yl)methanone]	191 nM
Cn1ccc([C@@]23CC[C@@H](c4cc(-c5c(F)cccc5F)nnc42)C3(C)C)n1 [Example 186]	152 nM
CCN(C(=O)CO)C(C)(C)[C@@]12CC[C@@H](c3cc(-c4c(F)cccc4F)nnc31)C2(C)C [Example 271, N-(2-((5R,8S)-3-(2,6-difluorophenyl)-9,9-dimethyl-5,6,7,8-tetrahydro-5,8-methanocinnolin-8-yl)propan-2-yl)-N-ethyl-2-hydroxyacetamide]	189 nM
Cc1nnc(N(Cc2ccccc2)C[C@@]23CC[C@@H](c4cc(-c5c(F)cccc5F)nnc42)C3(C)C)o1 [Example 266, N-benzyl-N-(((5R,8S)-3-(2,6-difluorophenyl)-9,9-dimethyl-5,6,7,8-tetrahydro-5,8-methanocinnolin-8-yl)methyl)-5-methyl-1,3,4-oxadiazol-2-amine]	214 nM
CC1(C)CN(C(=O)[C@@]23CC[C@@H](c4cc(-c5c(F)cccc5F)nnc42)C3(C)C)C1 [Example 142, ((5R,8R)-3-(2,6-difluorophenyl)-9,9-dimethyl-5,6,7,8-tetrahydro-5,8-methanocinnolin-8-yl)(3,3-dimethylazetidin-1-yl)methanone]	1420 nM
CC1(C)[C@@H]2C[C@H](F)[C@@]1(C)c1nnc(-c3ccccc3F)cc12 [Example 32, (5S,7S,8R)-7-fluoro-3-(2-fluorophenyl)-8,9,9-trimethyl-5,6,7,8-tetrahydro-5,8-methanocinnoline]	969 nM
C[C@H](O)C(=O)N(CCC#N)C[C@@]12CC[C@@H](c3cc(-c4c(F)cccc4F)nnc31)C2(C)C [Example 324, (S)-N-(2-cyanoethyl)-N-(((5R,8S)-3-(2,6-difluorophenyl)-9,9-dimethyl-5,6,7,8-tetrahydro-5,8-methanocinnolin-8-yl)methyl)-2-hydroxypropanamide]	732 nM
Cc1nnc(NC(=O)[C@]23CC[C@H](c4cc(-c5c(F)cccc5F)nnc42)C3(C)C)o1 [Example 84, (5S,8S)-3-(2,6-difluorophenyl)-9,9-dimethyl-N-(5-methyl-1,3,4-oxadiazol-2-yl)-6,7-dihydro-5,8-methanocinnoline-8(5H)-carboxamide]	1010 nM
Cc1ccn(C[C@]23CC[C@H](c4cc(-c5ccccc5F)nnc42)C3(C)C)n1 [Example 44, (5S,8R)-3-(2-fluorophenyl)-9,9-dimethyl-8-[(3-methyl-1H-pyrazol-1-yl)methyl]-5,6,7,8-tetrahydro-5,8-methanocinnoline]	607 nM
CC1(C)[C@@H]2CC[C@@]1(C(=O)N1CCCC1CO)c1nnc(-c3c(F)cccc3F)cc12 (stereo in doubt) [Example 215, ((5S,8S)-3-(2,6-difluorophenyl)-9,9-dimethyl-5,6,7,8-tetrahydro-5,8-methanocinnolin-8-yl) ((R)-2-(hydroxymethyl)pyrrolidin-1-yl)methanone]	1130 nM
C[C@H]1CN(C(=O)[C@]23CC[C@H](c4cc(-c5c(F)cccc5F)nnc42)C3(C)C)C[C@@H]1O [Example 220, ((5S,8S)-3-(2,6-difluorophenyl)-9,9-dimethyl-5,6,7,8-tetrahydro-5,8-methanocinnolin-8-yl)((3R,4S)-3-hydroxy-4-methylpyrrolidin-1-yl)methanone]	2940 nM
CC(C)OC1CN(C(=O)[C@]23CC[C@H](c4cc(-c5c(F)cccc5F)nnc42)C3(C)C)C1 [Example 235, ((5S,8S)-3-(2,6-difluorophenyl)-9,9-dimethyl-5,6,7,8-tetrahydro-5,8-methanocinnolin-8-yl)(3-isopropoxyazetidin-1-yl)methanone]	844 nM
CC(C)CNC(=O)[C@]12CC[C@H](c3cc(-c4ccccc4F)nnc31)C2(C)C [Example 131, (5S,8S)-3-(2-fluorophenyl)-N-isobutyl-9,9-dimethyl-5,6,7,8-tetrahydro-5,8-methanocinnoline-8-carboxamide]	1330 nM

The remaining compounds from weak to strong by IC50, led by results:

IC50	SMILES
149 nM	CC1(C)[C@H]2CC[C@]1(CNCC(F)F)c1nnc(-c3c(F)cccc3F)cc12 [Example 291, N-(((5R,8S)-3-(2,6-difluorophenyl)-9,9-dimethyl-5,6,7,8-tetrahydro-5,8-methanocinnolin-8-yl)methyl)-2,2-difluoroethanamine]
139 nM	Cc1ncoc1[C@]12CC[C@H](c3cc(-c4c(F)cccc4F)nnc31)C2(C)C [Example 227, 5-((5S,8S)-3-(2,6-difluorophenyl)-9,9-dimethyl-5,6,7,8-tetrahydro-5,8-methanocinnolin-8-yl)-4-methyloxazole]
137 nM	Cc1ocnc1[C@]12CC[C@H](c3cc(-c4c(F)cccc4F)nnc31)C2(C)C [Example 228, 4-((5S,8R)-3-(2,6-difluorophenyl)-9,9-dimethyl-5,6,7,8-tetrahydro-5,8-methanocinnolin-8-yl)-5-methyloxazole]
136 nM	COC(=O)c1ccc(COC[C@]23CC[C@H](c4cc(-c5ccccc5F)nnc42)C3(C)C)cc1 [Example 63, methyl 4-({[(5S,8S)-3-(2-fluorophenyl)-9,9-dimethyl-6,7-dihydro-5,8-methanocinnolin-8(5H)-yl]methoxy}methyl) benzoate]
124 nM	Cn1nc([C@@]23CC[C@@H](c4cc(-c5c(F)cccc5F)nnc42)C3(C)C)oc1=O [Example 226, 5-((5R,8R)-3-(2,6-difluorophenyl)-9,9-dimethyl-5,6,7,8-tetrahydro-5,8-methanocinnolin-8-yl)-3-methyl-1,3,4-oxadiazol-2(3H)-one]
106 nM	Cc1nc(C[C@@]23CC[C@@H](c4cc(-c5c(F)cccc5F)nnc42)C3(C)C)no1 [Example 59, (5R,8R)-3-(2,6-difluorophenyl)-9,9-dimethyl-8-[(5-methyl-1,2,4-oxadiazol-3-yl)methyl]-5,6,7,8-tetrahydro-5,8-methanocinnoline]
70 nM	CC1CN(C(=O)[C@]23CC[C@H](c4cc(-c5c(F)cccc5F)nnc42)C3(C)C)C1 [Example 100, [(5S,8S)-3-(2,6-difluorophenyl)-9,9-dimethyl-6,7-dihydro-5,8-methanocinnolin-8(5H)-yl](3-methylazetidin-1-yl)methanone]
67 nM	Cc1nnc(N(CCO)C[C@@]23CC[C@@H](c4cc(-c5c(F)cccc5F)nnc42)C3(C)C)o1 [Example 155, 2-((((5R,8S)-3-(2,6-difluorophenyl)-9,9-dimethyl-5,6,7,8-tetrahydro-5,8-methanocinnolin-8-yl)methyl)(5-methyl-1,3,4-oxadiazol-2-yl)amino)ethanol]
45 nM	COC[C@]12CC[C@H](c3cc(-c4c(F)cccc4Cl)nnc31)C2(C)C [Example 24, (5S,8S)-3-(2-chloro-6-fluorophenyl)-8-(methoxymethyl)-9,9-dimethyl-5,6,7,8-tetrahydro-5,8-methanocinnoline]
45 nM	CC(=O)OC[C@]12CC[C@H](c3cc(-c4ccccc4F)nnc31)C2(C)C [Example 12]
31 nM	CCN(C[C@]12CC[C@H](c3cc(-c4c(F)cccc4F)nnc31)C2(C)C)C(=O)CCC(=O)N(C)C [Example 344, N1-(((5S,8R)-3-(2,6-difluorophenyl)-9,9-dimethyl-5,6,7,8-tetrahydro-5,8-methanocinnolin-8-yl)methyl)-N1-ethyl-N4,N4-dimethylsuccinamide]
29 nM	CN(C)C(=O)[C@]12CC[C@H](c3cc(-c4c(F)cccc4F)nnc31)C2(C)C [Example 73, (5S,8S)-3-(2,6-difluorophenyl)-N,N,9,9-tetramethyl-6,7-dihydro-5,8-methanocinnoline-8(5H)-carboxamide]
24 nM	CC1(C)[C@H]2CC[C@]1(c1ccccn1)c1nnc(-c3c(F)cccc3F)cc12 [Example 153]
6 nM	CCN(C[C@@]12CC[C@@H](c3cc(-c4c(F)cccc4F)nnc31)C2(C)C)C(=O)c1cc(C)on1 [Example 158, N-(((5R,8S)-3-(2,6-difluorophenyl)-9,9-dimethyl-5,6,7,8-tetrahydro-5,8-methanocinnolin-8-yl)methyl)-N-ethyl-5-methylisoxazole-3-carboxamide]
